Experimental data from patent US20250195530A1, “POLQ INHIBITORS” (ASTRAZENECA AB, priority 2022, published 2025).

Experiments:
DLD-1 cells = test: Inhibition of proliferation, DLD-1 BRCA2 wt control (Cell Titre Glo 3D); type: cell-based; conditions: mean; for IC50: Homo sapiens, DLD-1, DLD1 BRCA2 wt, read-out: POLQ PD Prolif Lumin DLD1 mean pIC50 (converted); for POLQ PD Prolif Lumin DLD1 mean pIC50: DLD1 BRCA2 wt
Outline: (§1)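 Isogenic DLD-1 pair; BRCA2−/− seeded 3,000 cells/mL and read day 12, wt seeded 1,500 cells/mL and read day 7. 10-pt titration (top 10 μM, 3-fold), re-fed with compound day 6, 37 °C/5% CO2. CTG 3D endpoint; IC50 at 50% signal loss.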

DLD-1 BRCA2−/− cells = test: Homologous recombination synthetic lethal inhibition of proliferation, DLD-1 BRCA2-/- (Cell Titre Glo 3D); type: cell-based; conditions: mean; for IC50: Homo sapiens, DLD-1, DLD-1 BRCA2 −/−, read-out: POLQ PD Prolif Lumin BRCA2 −/− mean pIC50 (converted); for POLQ PD Prolif Lumin BRCA2 −/− mean pIC50: DLD-1 BRCA2 −/−
Outline: as §1

Row | SMILES | IC50 (DLD-1 cells) | POLQ PD Prolif Lumin DLD1 mean pIC50 (DLD-1 cells) | IC50 (DLD-1 BRCA2−/− cells) | POLQ PD Prolif Lumin BRCA2 −/− mean pIC50 (DLD-1 BRCA2−/− cells)
1 | C[C@H](CCOc1cccc(-c2nc3c(OC4(C)CC4)ncnc3n2Cc2cc(Cl)ccc2F)c1Cl)C(=O)O [Example U26, (R)-4-(2-chloro-3-(9-(5-chloro-2-fluorobenzyl)-6-(1-methylcyclopropoxy)-9H-purin-8-yl)phenoxy)-2-methylbutanoic acid] | > 10000 nM |  | 25.1 nM | 
2 | CC(C)(CCOc1cccc(-c2nc3c(OC4(C)CC4)ncnc3n2Cc2cccc(Cl)c2)c1Cl)CC(=O)O [Example U28, 5-(2-chloro-3-(9-(3-chlorobenzyl)-6-(1-methylcyclopropoxy)-9H-purin-8-yl)phenoxy)-3,3-dimethylpentanoic acid] | > 10000 nM |  | 79.4 nM | 
3 | COc1ccc(Cl)cc1Cn1c(-c2cccc(OCCCOCC(=O)O)c2Cl)nc2c(OC3(C)CC3)ncnc21 [Example U30, 2-(3-(2-chloro-3-(9-(5-chloro-2-methoxybenzyl)-6-(1-methylcyclopropoxy)-9H-purin-8-yl)phenoxy)propoxy)acetic acid] | > 10000 nM |  | 20 nM | 
4 | CC1(Oc2ncnc3c2nc(-c2cc(F)cc(OCCC(=O)O)c2Cl)n3Cc2cccc(Cl)c2)CC1 [Example U39, 3-(2-chloro-3-(9-(3-chlorobenzyl)-6-(1-methylcyclopropoxy)-9H-purin-8-yl)-5-fluorophenoxy)propanoic acid] | > 10000 nM |  | 12.6 nM | 
5 | COc1ccc(Cl)cc1Cn1c(-c2cccc(OCCOCC(=O)O)c2Cl)nc2c(OC3(C)CC3)ncnc21 [Example U52, 2-(2-(2-chloro-3-(9-(5-chloro-2-methoxybenzyl)-6-(1-methylcyclopropoxy)-9H-purin-8-yl)phenoxy)ethoxy)acetic acid] | > 10000 nM |  | 50.1 nM | 
6 | COc1ccc(Cl)cc1Cn1c(-c2cccc(CCCC(=O)O)c2Cl)nc2c(OC3(C)CC3)ncnc21 [Example U62, 4-(2-chloro-3-(9-(5-chloro-2-methoxybenzyl)-6-(1-methylcyclopropoxy)-9H-purin-8-yl)phenyl)butanoic acid] | > 10000 nM |  | 50.1 nM | 
7 | CC1(Oc2ncnc3c2nc(-c2ccc(F)c(OCCC(=O)O)c2Cl)n3Cc2cccc(Cl)c2)CC1 [Example U65, 3-(2-chloro-3-(9-(3-chlorobenzyl)-6-(1-methylcyclopropoxy)-9H-purin-8-yl)-6-fluorophenoxy)propanoic acid] | > 10000 nM |  | 251 nM | 
8 | COc1ccc(F)cc1Cn1c(-c2ccc(OCC[C@@H](C)C(=O)O)cc2Cl)nc2c(OC3(C)CC3)ncnc21 [Example U67, (R)-4-(3-chloro-4-(9-(5-fluoro-2-methoxybenzyl)-6-(1-methylcyclopropoxy)-9H-purin-8-yl)phenoxy)-2-methylbutanoic acid] | > 10000 nM |  | 50.1 nM | 
9 | COc1ccc(F)cc1Cn1c(-c2ccc(OCC[C@H](C)C(=O)O)cc2Cl)nc2c(OC3(C)CC3)ncnc21 [Example U68, (S)-4-(3-chloro-4-(9-(5-fluoro-2-methoxybenzyl)-6-(1-methylcyclopropoxy)-9H-purin-8-yl)phenoxy)-2-methylbutanoic acid] | > 10000 nM |  | 39.8 nM | 

Further lines, with some results ahead:

Row | IC50 (DLD-1 cells) | POLQ PD Prolif Lumin DLD1 mean pIC50 (DLD-1 cells) | SMILES | IC50 (DLD-1 BRCA2−/− cells) | POLQ PD Prolif Lumin BRCA2 −/− mean pIC50 (DLD-1 BRCA2−/− cells)
10 | > 7940 nM |  | COc1ccc(Cl)cc1Cn1c(-c2ccc(OCCC(C)(C)C(=O)O)cc2Cl)nc2c(OC3(C)CC3)ncnc21 [Example U31, 4-(3-chloro-4-(9-(5-chloro-2-methoxybenzyl)-6-(1-methylcyclopropoxy)-9H-purin-8-yl)phenoxy)-2,2-dimethylbutanoic acid] | 50.1 nM | 
11 |  | 5.1 | COc1ccc(Cl)cc1Cn1c(-c2cccc(O[C@H]3CC[C@H](C(=O)O)CC3)c2Cl)nc2c(OC3(C)CC3)ncnc21 [Example U38, (1r,4r)-4-(2-chloro-3-(9-(5-chloro-2-methoxybenzyl)-6-(1-methylcyclopropoxy)-9H-purin-8-yl)phenoxy)cyclohexane-1-carboxylic acid] |  | 7.5
12 |  | <5.1 | COc1ccc(Cl)cc1Cn1c(-c2ccc(O[C@H]3CC[C@@H](C(=O)O)CC3)cc2Cl)nc2c(OC3(C)CC3)ncnc21 [Example U40, (1s,4s)-4-(3-chloro-4-(9-(5-chloro-2-methoxybenzyl)-6-(1-methylcyclopropoxy)-9H-purin-8-yl)phenoxy)cyclohexane-1-carboxylic acid] |  | 7
13 |  | <5.0 | COc1ccc(Cl)cc1Cn1c(-c2ccc(O[C@H]3CC[C@H](C(=O)O)CC3)cc2Cl)nc2c(OC3(C)CC3)ncnc21 [Example U43, (1r,4r)-4-(3-chloro-4-(9-(5-chloro-2-methoxybenzyl)-6-(1-methylcyclopropoxy)-9H-purin-8-yl)phenoxy)cyclohexane-1-carboxylic acid] |  | 7.2
14 | 6310 nM |  | COc1ccc(Cl)cc1Cn1c(-c2ccc(OCCCC(C)(C)C(=O)O)cc2Cl)nc2c(OC3(C)CC3)ncnc21 [Example U47, 5-(3-chloro-4-(9-(5-chloro-2-methoxybenzyl)-6-(1-methylcyclopropoxy)-9H-purin-8-yl)phenoxy)-2,2-dimethylpentanoic acid] | 31.6 nM | 
15 | > 10000 nM |  | COc1ccc(Cl)cc1Cn1c(-c2ccc(OCCOCC(=O)O)cc2Cl)nc2c(OC3(C)CC3)ncnc21 [Example U48, 2-(2-(3-chloro-4-(9-(5-chloro-2-methoxybenzyl)-6-(1-methylcyclopropoxy)-9H-purin-8-yl)phenoxy)ethoxy)acetic acid] | 631 nM | 
16 |  | <5.0 | COc1ccc(Cl)cc1Cn1c(-c2cccc(O[C@H]3CC[C@@H](C(=O)O)CC3)c2Cl)nc2c(OC3(C)CC3)ncnc21 [Example U50, (1s,4s)-4-(2-chloro-3-(9-(5-chloro-2-methoxybenzyl)-6-(1-methylcyclopropoxy)-9H-purin-8-yl)phenoxy)cyclohexane-1-carboxylic acid] |  | 7.6
17 |  | <5.0 | COc1ccc(Cl)cc1Cn1c(-c2cccc(O[C@H]3C[C@H](C(=O)O)C3)c2Cl)nc2c(OC3(C)CC3)ncnc21 [Example U51, (1r,3r)-3-(2-chloro-3-(9-(5-chloro-2-methoxybenzyl)-6-(1-methylcyclopropoxy)-9H-purin-8-yl)phenoxy)cyclobutane-1-carboxylic acid] |  | 7.2
18 | > 10000 nM |  | COc1ccc(Cl)cc1Cn1c(-c2ccc(OCCOC(C)(C)C(=O)O)cc2Cl)nc2c(OC3(C)CC3)ncnc21 [Example U54, 2-(2-(3-chloro-4-(9-(5-chloro-2-methoxybenzyl)-6-(1-methylcyclopropoxy)-9H-purin-8-yl)phenoxy)ethoxy)-2-methylpropanoic acid] | 126 nM | 
19 | > 10000 nM |  | COc1ccc(Cl)cc1Cn1c(-c2cccc(CCC(=O)O)c2Cl)nc2c(OC3(C)CC3)ncnc21 [Example U64, 3-(2-chloro-3-(9-(5-chloro-2-methoxybenzyl)-6-(1-methylcyclopropoxy)-9H-purin-8-yl)phenyl)propanoic acid] | 100 nM | 
20 |  | <5.0 | COc1ccc(F)cc1Cn1c(-c2cccc(O[C@H]3CC[C@H](C(=O)O)CC3)c2Cl)nc2c(OC3(C)CC3)ncnc21 [Example U69, (1r,4r)-4-(2-chloro-3-(9-(5-fluoro-2-methoxybenzyl)-6-(1-methylcyclopropoxy)-9H-purin-8-yl)phenoxy)cyclohexane-1-carboxylic acid] |  | 7.4
